{"source": "patent EP0285883A2", "about": "“Bactobolin as a prophylactic or therapeutic agent for autoimmune diseases, and as an immuno-suppressive agent” (ZAIDAN HOJIN BISEIBUTSU KAGAKU KENKYU KAI, priority 1987, dated 1988)", "key": {"EAE [1]": {"test_system": "EAE", "test": "Test 2: EAE in MBP/CFA-immunized rats, treatment during the effector phase (Day 8-14)", "format": "in vivo", "details": "for Histologic score (±SD): treatment during the effector phase, evaluated for 15 days after the immunization", "protocol": "Bactobolin was administered intraperitoneally to the MBP/CFA-immunized animals (rats) during a period (Day 8-14), which was considered to correspond primarily to the effector phase of EAE, and during this period the effects of bactobolin was estimated."}, "EAE [2]": {"test_system": "EAE", "test": "Test 3: EAE, treatment started after onset of clinical signs", "format": "in vivo", "details": "0.5 mg/Kg i.p., started on the day of the first clinical sign", "protocol": "A study was conducted to determine whether the intraperitoneal administration of bactobolin made after the incidence of EAE was therapeutically effective, or not."}, "Passively Induced EAE": {"test_system": "Passively Induced EAE", "test": "Test 4: passively induced EAE (transfer of precultured spleen cells)", "format": "in vivo, rats", "details": "0.5 mg/Kg, sacrificed Day 9 P.I."}, "lymph node cells": {"test_system": "lymph node cells", "test": "Test 5: lymphocyte proliferative responses of lymph node cells from treated rats (tritiated thymidine uptake)", "format": "in vivo", "protocol": "Using lymph node cells which were separately collected separately from control rats and from the bactobolin-intraperitoneally administered rats on Day 11 (the 11th day after the sensitization), the lymphocyte proliferative responses to specific antigen, as well as the response to Con A were assessed.\nNote 1:- Animals belonging to Bactobolin-administered group were daily intraperitoneally with 0.5mg/kg of bactobolin from Day 1 P.I. to Day 8 P.I., and the control animals were treated with PBS. Note 2:-Lymph node cells were obtained from control and bactobolin-treated rats 11 days after the sensitization. These lymphoid cells were cultured with GPBP (10 µg/mℓ), PPD (10 µg/mℓ) or Con A (2 µg/mℓ) for 3 days. The proliferative responses were assessed by measuring the uptake of tritiated thymidine.\nIn the above, CPM means the measured number of count per minute; MBP means myelin basic protein; PPD means a purified protein derivative; and Con A means concanavalin A."}, "[3]": {"test_system": "Acute Experimental Autoimmune Encephalomyelitis (EAE) of Rat", "test": "Test 1: acute EAE of rat, treatment during the induction phase", "format": "in vivo, rats", "details": "for Incidence of EAE Number of animals affected/Number of animals tested: 0.5 mg/Kg intraperitoneal daily, observed for 16 days after immunization; for Histologic score (±SD): treatment during the inductive phase, mean of six separate sections incl. spinal cord and brain, ratings zero to 4", "protocol": "To animals (rats) as sensitized with myelin basic protein/complete Freund adjuvant (hereinafter affreviated as MBP/CFA) for immunization, 0.5 mg/kg of bactobolin was administered by intraperitoneal injection daily from the next day (Day 1) of the immunization to Day 8. This administration period corresponds approximately to the induction phase of EAE."}, "mouse": {"test_system": "mouse", "details": "in mouse, intravenous; cited from earlier work"}}, "note": "Where “and” joins values, the source holds several entries; their conditions need not be identical. Equal values may be shown once."}
{"compound": "C[C@H](N)C(=O)N[C@@H]1[C@H]2C(=C(O)C[C@@H](O)[C@@H]2O)C(=O)O[C@]1(C)C(Cl)Cl", "note": "[Bactobolin, bactobolin]", "values": [{"measurement": "Paralysis score (±SD)", "setting": "EAE [1]; 0.5 mg/Kg i.p., effector phase, Day 8-14, sacrificed on Day 15 P.I.", "result": "0 ± 0"}, {"measurement": "Incidence of EAE (number of animals affected number of animals tested)", "setting": "EAE [1]; 0.5 mg/Kg i.p., effector phase, Day 8-14 after the immunization", "result": "suppressed the incidence of EAE markedly and 0/5"}, {"measurement": "Histologic score (±SD)", "setting": "EAE [1]", "result": "0.1 ± 0.1"}, {"measurement": "Histologic score (±SD)", "setting": "EAE [1]; listed as bactobolin", "result": "suppressed histologic lesion markedly"}, {"measurement": "Paralysis score (±SD)", "setting": "EAE [2]", "result": "4.6 ± 1.2"}, {"measurement": "Whole duration of illness (days ± SD)", "setting": "EAE [2]", "result": "4.4 ± 1.0", "unit": "days"}, {"measurement": "Paralysis score (±SD)", "setting": "EAE [2]; listed as bactobolin", "result": "suppressed significantly"}, {"measurement": "Whole duration of illness (days ± SD)", "setting": "EAE [2]; listed as bactobolin", "result": "no substantial influences were observed"}, {"measurement": "Paralysis score (±SD)", "setting": "Passively Induced EAE; recipients administered Day 1 to Day 8 P.I.", "result": "0 ± 0"}, {"measurement": "Incidence of EAE (days ± SD)", "setting": "Passively Induced EAE; recipients of 2x10^7 precultured spleen cells, administered Day 1 to Day 8 P.I.", "result": "suppressed the incidence of passively induced EAE markedly and 0/2"}, {"measurement": "CPM ± SD (uptake of tritiated thymidine)", "setting": "lymph node cells; Con A (2 µg/mℓ), 0.5mg/kg i.p. daily Day 1-8 P.I., cells taken 11 days after sensitization, cultured 3 days", "result": "suppressed"}, {"measurement": "lymphocyte proliferative responses to specific antigen", "setting": "lymph node cells; lymph node cells of the bactobolin-administered group, Day 11, result in words", "result": "No lymphocyte proliferative responses to specific antigen were observed"}, {"measurement": "Paralysis score (±SD)", "setting": "[3]; 0.5 mg/Kg i.p. daily, Day 1-8 (induction phase), sum of the scores daily estimated during the disease", "result": "0 ± 0"}, {"measurement": "Incidence of EAE Number of animals affected/Number of animals tested", "setting": "[3]; Day 1-8 (induction phase)", "result": "0/5"}, {"measurement": "Incidence of EAE Number of animals affected/Number of animals tested", "setting": "[3]; Day 1-8 (induction phase), listed as bactobolin", "result": "none of the rats developed EAE"}, {"measurement": "Histologic score (±SD)", "setting": "[3]", "result": "0.5 ± 0.6"}, {"measurement": "Histologic score (±SD)", "setting": "[3]; listed as bactobolin", "result": "suppresses histologic EAE markedly"}, {"measurement": "acute LD50 toxicity", "setting": "mouse", "result": "6.25 to 12.5", "unit": "mg/kg"}]}
